Source: patent US20090281184A1, “PHARMACEUTICAL FOR PREVENTION AND TREATMENT OF OPHTHALMIC DISEASE INDUCED BY IN-CREASE IN VASOPERMEABILITY” (SAPPORO MEDICAL UNIVERSITY, priority 2005, published 2009)

Legend:
diabetic model mice = test: Streptozotocin-induced diabetic model mice, FITC dextran in the eyes as index of vascular permeability; assay type: in vivo, mouse; conditions: atRA 1 mg/kg intraperitoneally
Experimental: Male 5 to 6 week-old C57/BL6 mice were administered with streptozotocin and diabetes was chemically induce in these model mice. To these diabetic model mice, retinoids were administered to evaluate clinical effectiveness. For reference, mice without the diabetic induction were used as control.
Experimental groups: 1. Control (group of non-induction of diabetes) 2. Diabetic group (non-treated group) 3. Diabetic group (atRA-treated group) 4. Diabetic group (Am580-treated group) 5. Diabetic group (Am80-treated group)
The onset of diabetes was confirmed by periodical measurement of glucose in urine, and after all the mice became strongly positive, by measurement of blood glucose. The mice of 4 to 6 week-pathological period with diabetes were used. […] Mice were divided into 4 groups as mentioned above for the treatment. The treatment were performed by administrating atRA (1 mg/kg), Am580 (3.75 mg/kg), and Am80 (4.5 mg/kg) intraperitoneally every other day for 4 days. […] As the index of the permeability, the FITC in the eyes was measured, and the value was standardized with the FITC amount contained in cardiac blood to minimize a potential difference between each amount of dose.
As biological parameters, blood sugar (BS) and urine sugar (US) were evaluated.

GDNF [1] = test: Suppression of GDNF expression by AGE-2 in human astrocyte (RT-PCR, ELISA); assay type: cell-based; conditions: p<0.001; for inhibition of the effect of AGE-2 to suppress the expression of GDNF, protein level: combination with AGE-2, ELISA of cell culture medium; for inhibition of the effect of AGE-2 to suppress the expression of GDNF, mRNA level: combination with AGE-2, RT-PCR
Experimental: Human astrocyte was treated with AGE-2 alone, or combinations of AGE-2 with atRA or Am580, and alterations in the expression of GDNF was evaluated in the same manner as FIG. 6.

GDNF [2] = test: GDNF expression in primary cultured human astrocyte; assay type: cell-based; conditions: for GDNP expression / suppression of the vascular permeability (expression of GDNF divided by expression of VEGF): human astrocyte; for GDNP expression: FIG. 6; for suppression of the vascular permeability (expression of GDNF divided by expression of VEGF): non-treated group as inner control; for expression of GDNF mRNA: preliminary experiment, see FIG. 6
Experimental: (§1) In Examples 1 and 2, U373MG cells, a cell line having the characteristic as astrocyte, was used for convenience of the experiment. […] Therefore, studies were made to evaluate whether or not the enhancement of the expression of GDNF by the retinoid can be observed also in the system using human astrocyte. The astrocyte used in the experiment was a primary cultured cell isolated from the human brain, and was purchased from Cambrex Corporation, USA. This means provides an advantage that observation is achievable under environments closer to those in vivo.
Whilst, the expression of VRGF that is a strong vascular hyperpermeability factor was suppressed in the treated groups. The level of suppression of the vascular permeability in the treated groups is represented by a relative amount of the two factors that define permeability, specifically, a value obtained by dividing a value of the expression of GDNF that is the permeability-suppressing factor by a value of the expression of VEGF that is a hyperpermeability factor. In this case, a value of the expression of each of non-treated groups is used as an inner control, and an amount of the expression of the treated groups is calculated from the concentration on the gel and the area. […] The experimental groups in FIG. 6 are as follows, and the upper figure indicates the photographs of the gel, the lower figure indicates visualized differences of relative amounts obtained by the quantification thereof.

[3] = tested on: MDCK (Madin Darby Canine Kidney) cell; test: Barrier function evaluation with MDCK cells, same parameters as Example 2; assay type: cell-based, dog
Text: The vascular endothelial cell used in Example 2 is the primary culture strain obtained from the bovine brain, which has an advantage of capable of reproducing in vitro conditions more similar to those in a living body. However, unlike those called as cell lines, the strain of the primary cultured cell has limited number of division and a slow division rate, and therefore has an aspect of unsuitability for an experimental system that requires repeated examination. Accordingly, MDCK (Madin Darby Canine Kidney) cell as dog-derived kidney tubule cell (easily available commercially) was used, which cell is optimum for the evaluation of the barrier function and has been experienced of being already used in variety of experimental systems. The effect of synthetic retinoids was evaluated with the same parameter as those in Example 2. The experimental groups in FIG. 5 are as follows:
1. Non-treated group 2. atRA (RARα agonist) 3. Am80 (RARα agonist) 4. Am580 (RARα agonist)
In FIG. 5, the non-treated group (control) is defined as “1”, and relative differences thereto are shown as graphs.

VEGF = VEGF expression in primary cultured human astrocyte; assay type: cell-based; conditions: treated groups, FIG. 6
Experimental: as §1
Whilst, the expression of VRGF that is a strong vascular hyperpermeability factor was suppressed in the treated groups. […] In this case, a value of the expression of each of non-treated groups is used as an inner control, and an amount of the expression of the treated groups is calculated from the concentration on the gel and the area. […] The experimental groups in FIG. 6 are as follows, and the upper figure indicates the photographs of the gel, the lower figure indicates visualized differences of relative amounts obtained by the quantification thereof.

GDNF [4] = test: GDNF expression by atRA treatment in human glioma cells (quantitative RT-PCR, Southern blot); assay type: cell-based; conditions: U373MG cells
Experimental: U373MG cells were cultured in a relatively dense state, and were treated with 10 nM or 100 nM of all-trans retinoic acid (atRA). mRNA was extracted from the cells and subjected to quantitative RT-PCR, and then changes in the gene expression were analyzed and quantified by the Southern blot method. Reverse transcription was performed by using a kit manufactured by Invitrogen. The reagents were prepared according to the manufacturer's instructions, and reacted at 42° C. for 30 minutes. The product was used for PCR after denaturation of reverse transcriptase at 96° C. for 5 minutes. For the PCR reaction, each reagent manufactured by TaKaRa was prepared by mixing according to the manufacturer's instructions, and the following reactions were performed:
1) 94° C., 30 seconds 2) 94° C., 15 seconds 3) 52° C., 15 seconds 4) 72° C., 30 seconds 5) repeat of the reactions from 2) to 4) for 32 times 6) 72° C., 7 minutes
The final reaction product was used for the Southern blot test.

[5] = tested on: vascular endothelial cells obtained from the bovine brain; test: Barrier function of vascular endothelial cells co-cultured with atRA-treated U373MG cells (transwell double chamber); assay type: cell-based; conditions: p<0.05
Experimental: In order to evaluate whether or not the alteration induces physiological reactions, co-cultivation with vascular endothelial was performed. […] As can be understood from FIG. 3, the […] cells (astrocytes) were grown as effector cells in the outer chamber, and treated with atRA and cultured for additional 24 hours. In the inner chamber separately prepared, vascular endothelial cells obtained from the bovine brain were cultured to prepare beforehand for forming a dense single layer cell-sheet.
The outer chamber with U373MG cells and the inner chamber with the vascular endothelial cells were jointed to start the co-culture for evaluation of the barrier function that is a tight-function of the vascular endothelial cells. […] In this experiment, as functional alterations of the vascular endothelial cells by the influence of the astrocyte, the difference in electrical resistance inside and outside of the vascular endothelial cells, and the mobility to the outer chamber of the labeled substance (^14C-labeled) added in the inner chamber were evaluated as indexes as the vascular permeability. The activity of the transferred radioactive substance is indicated as dpm (disintegrations per minutes).

[6] = tested on: vascular endothelial cells; test: Direct treatment of vascular endothelial cells in the absence of astrocyte; assay type: cell-based; conditions: FIG. 8
Text: It is known that the vascular endothelial cells also have retinoid receptors, and accordingly, there remains a possibility that atRA contained in the cell culture medium effected directly on the vascular endothelial cells during the co-culture. However, when a recombinant protein of GDNF was directly effected on the vascular endothelial cells in the absence of astrocyte, the increase in TER and the decrease in the permeability were induced (*p<0.05), whilst these changes were not observed when the cells were treated with atRA (FIG. 8).

[7] = relative to non-treated group, p<0.05
[8] = 14C-labeled, co-culture with atRA-treated U373MG cells

## CC1(C)CCC(C)(C)c2cc(C(=O)Nc3ccc(C(=O)O)cc3)ccc21 [Am580, 4-[(5,6,7,8-tetrahydro-5,5,8,8-tetramethyl-2-naphthalenyl)carboxamide]benzoic acid]
Diabetic model mice; middle stage diabetic group, Am580 3.75 mg/kg
  effectiveness on vascular hyperpermeability (amount of FITC in the eyes): higher effectiveness than atRA
GDNF [1]
  inhibition of the effect of AGE-2 to suppress the expression of GDNF, protein level: strongly inhibited
  inhibition of the effect of AGE-2 to suppress the expression of GDNF, mRNA level: strongly inhibited
GDNF [2]
  GDNP expression: significantly increases
  suppression of the vascular permeability (expression of GDNF divided by expression of VEGF): about three-fold
  expression of GDNF mRNA: induced the expression of GDNF mRNA in a dose-dependent and time-dependent manner
[3]; relative to non-treated group defined as 1, p<0.05
  TER: more effective than atRA, and much effective than Am80
[3]; [7]
  intercellular permeability (inulin): most effectively suppressed
  intercellular permeability (mannitol): most effectively suppressed
VEGF
  expression of VRGF: suppressed

## CC1=C(/C=C/C(C)=C/C=C/C(C)=C/C(=O)O)C(C)(C)CCC1 [atRA, all-trans retinoic acid]
Diabetic model mice; diabetic mice, compared to the non-treated group
  urine sugar (US): Significantly lower
GDNF [4]
  time at which the increase in GDNF expression reached a plateau level: about 3 hours
GDNF [4]; 10 nM or 100 nM, after 3 hours and 24 hours
  GDNF mRNA level expression: increased in relation to the elevated concentration
[5]; [8]
  permeability of inulin (5 kDa): significantly suppressed
  permeability of mannitol (182 Da): significantly suppressed
[5]; co-culture with U373MG cells treated with atRA
  TER (transepithelial electrical resistance), barrier function of the vascular endothelial cells: enhanced
GDNF [1]
  inhibition of the effect of AGE-2 to suppress the expression of GDNF, protein level: strongly inhibited
  inhibition of the effect of AGE-2 to suppress the expression of GDNF, mRNA level: strongly inhibited
GDNF [2]
  GDNP expression: significantly increases
  suppression of the vascular permeability (expression of GDNF divided by expression of VEGF): about three-fold
  expression of GDNF mRNA: induced the expression of GDNF mRNA in a dose-dependent and time-dependent manner
[6]
  TER: not observed
  permeability: not observed
VEGF
  expression of VRGF: suppressed

B1: recombinant protein of GDNF: recombinant glial cell line-derived neurotrophic factor (protein, UniProt P39905 78-211, looked up)
Glial cell line-derived …: SPDKQMAVLPRRERNRQAAAANPENSRGKGRRGQRGKNRGCVLTAIHLNVTDLGLGYETKEELIFRYCSGSCDAAETTYDKILKNLSRNRRLVSDKVGQACCRPIAFDDDLSFLDDNLVYHILRKHSAKRCGCI
[6]
  TER: increase
  permeability: decrease
